Test results reported in PMC6707612, “Cyclic-di-GMP binds to histidine kinase RavS to control RavS-RavR phosphotransfer and regulates the bacterial lifestyle transition between virulence and swimming” (PLoS Pathogens, 2019).

Columns and labels:
[1] = biological target: T1, RavS^ΔN (Xanthomonas campestris pv. campestris, UniProt Q8P9A6); experiment: in vitro autophosphorylation assay; type: biochemical; conditions: 100 μM c-di-GMP, no RavR added
T1 sequence (Q8P9A6 352-697): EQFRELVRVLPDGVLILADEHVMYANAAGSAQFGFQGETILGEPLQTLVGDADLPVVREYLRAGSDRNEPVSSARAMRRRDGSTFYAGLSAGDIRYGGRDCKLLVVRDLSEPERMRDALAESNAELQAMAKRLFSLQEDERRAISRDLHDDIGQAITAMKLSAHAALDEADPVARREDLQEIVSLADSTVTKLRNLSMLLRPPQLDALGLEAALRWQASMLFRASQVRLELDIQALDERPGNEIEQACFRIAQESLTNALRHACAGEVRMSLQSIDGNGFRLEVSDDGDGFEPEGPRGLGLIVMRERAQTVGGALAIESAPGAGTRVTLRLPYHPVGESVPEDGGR
Description: (a) c-di-GMP enhances RavS-RavR phosphotransfer in vitro. A total of 5 μM RavS^ΔN was autophosphorylated for 15 min by the addition of 10 μCi [γ-^32P]ATP. A total of 15 μM RavR^ΔEAL or RavR^ΔEAL(D496A) was added and incubated for 30 min at 25°C. A total of 100 μM c-di-GMP was added if necessary. The reactions were terminated with 5× SDS loading buffer before autoradiography. The experiment was repeated three times. (b) Time course analyses of the impact of c-di-GMP on the velocity of RavS-RavR phosphotransfer. The autophosphorylation and phosphotransfer reactions were set as mentioned in (a). Various concentrations of c-di-GMP were added to the reactions and isotopic signals (band intensities) of RavS~P were measured after autoradiography. (c–d) c-di-GMP triggered an increase in RavS-RavR phosphotransfer in a dose-dependent manner. […] (d) The phosphorylated level of RavS^ΔN~P was quantified by ImageJ and the EC50 value was estimated by Origin 8.5 software. […] The interaction between RavS^ΔTrM and various nucleotides, including fl-c-di-GMP, fl-cGMP and fl-c-di-AMP, were measured by microscale thermophoresis (MST). A total of 20 nM fluorescein-labelled nucleotides and increasing concentrations of proteins were incubated and measured by MST. The dissociation constant (Kd) was quantified to estimate the binding affinity. […]

[2] = biological target: STING; design: method as in PMID 26055114; conditions: upper end of reported range; cited from earlier work
[3] = biological target: PizD; design: method as in PMID 26055114; conditions: lower end of reported range; cited from earlier work

In the case of `Nc1nc2c(ncn2[C@@H]2O[C@@H]3COP(=O)(O)O[C@H]4[C@@H](O)[C@H](n5cnc6c(=O)[nH]c(N)nc65)O[C@@H]4COP(=O)(O)O[C@H]3[C@H]2O)c(=O)[nH]1` [c-di-GMP, Cyclic di-GMP], the “effect on RavS^ΔN autophosphorylation (autokinase activity)” value [1] is listed as “does not affect”, the Kd [2] is listed as 14.5 µM and the Kd [3] is listed as 0.1 µM.
